Experimental data taken from ChEMBL document CHEMBL1135151, “Preparation, characterization, molecular modeling and in vitro activity of paclitaxel-cyclodextrin complexes” (2002).

Tests used:
Type in all cases: functional, Homo sapiens
DU-145 [1] = experiment: Tested for in vitro activity against DU 145 cells at PTX dilution factor 1:50, expressed as percentage of cellular survival as a function of drug dilution
DU-145 [2] = experiment: Tested for in vitro activity against DU 145 cells at PTX dilution factor 1:500, expressed as percentage of cellular survival as a function of drug dilution
DU-145 [3] = experiment: Tested for in vitro activity against DU 145 cells at PTX dilution factor 1:1000, expressed as percentage of cellular survival as a function of drug dilution
DU-145 [4] = experiment: Tested for in vitro activity against DU 145 cells at PTX dilution factor 1:100, expressed as percentage of cellular survival as a function of drug dilution

SMILES	Survival (DU-145 [1]) [%]	Survival (DU-145 [2]) [%]	Survival (DU-145 [3]) [%]	Survival (DU-145 [4]) [%]
CC(=O)O[C@H]1C(=O)[C@@]2(C)C([C@H](OC(=O)c3ccccc3)[C@]3(O)C[C@H](OC(=O)[C@H](O)[C@@H](NC(=O)c4ccccc4)c4ccccc4)C(C)=C1C3(C)C)[C@]1(OC(C)=O)CO[C@@H]1C[C@@H]2O.COCC1O[C@H]2OC3C(COC)O[C@@H](OC4C(COC)O[C@@H](OC5C(COC)O[C@@H](OC6C(COC)O[C@@H](OC7C(COC)O[C@@H](OC8C(COC)O[C@@H](OC1[C@@H](O)[C@@H]2OC)[C@@H](OC)[C@H]8O)[C@@H](OC)[C@H]7O)[C@@H](O)[C@H]6OC)[C@@H](OC)[C@H]5O)[C@@H](OC)[C@H]4O)[C@@H](OC)[C@H]3O (stereo partly drawn)	35.2	51.1	61.3	46.3
CC(=O)O[C@H]1C(=O)[C@@]2(C)C([C@H](OC(=O)c3ccccc3)[C@]3(O)C[C@H](OC(=O)[C@H](O)[C@@H](NC(=O)c4ccccc4)c4ccccc4)C(C)=C1C3(C)C)[C@]1(OC(C)=O)CO[C@@H]1C[C@@H]2O.COCC1O[C@H]2OC3C(COC)O[C@@H](OC4C(COC)O[C@@H](OC5C(COC)O[C@@H](OC6C(COC)O[C@@H](OC7C(COC)O[C@@H](OC8C(COC)O[C@@H](OC1[C@@H](OC)[C@@H]2OC)[C@@H](OC)[C@H]8OC)[C@@H](OC)[C@H]7OC)[C@@H](OC)[C@H]6OC)[C@@H](OC)[C@H]5OC)[C@@H](OC)[C@H]4OC)[C@@H](OC)[C@H]3OC (stereo partly drawn)	43.2	68.7	69.3	61.3
CC(=O)O[C@H]1C(=O)[C@@]2(C)C([C@H](OC(=O)c3ccccc3)[C@]3(O)C[C@H](OC(=O)[C@H](O)[C@@H](NC(=O)c4ccccc4)c4ccccc4)C(C)=C1C3(C)C)[C@]1(OC(C)=O)CO[C@@H]1C[C@@H]2O.OCC1O[C@H]2OC3C(CO)O[C@@H](OC4C(CO)O[C@@H](OC5C(CO)O[C@@H](OC6C(CO)O[C@@H](OC7C(CO)O[C@@H](OC8C(CO)O[C@@H](OC1[C@@H](O)[C@@H]2O)[C@@H](O)[C@H]8O)[C@@H](O)[C@H]7O)[C@@H](O)[C@H]6O)[C@@H](O)[C@H]5O)[C@@H](O)[C@H]4O)[C@@H](O)[C@H]3O (stereo partly drawn)	12.2	23.1	24.2	22.3
COCC1O[C@H]2OC3C(COC)O[C@@H](OC4C(COC)O[C@@H](OC5C(COC)O[C@@H](OC6C(COC)O[C@@H](OC7C(COC)O[C@@H](OC8C(COC)O[C@@H](OC1[C@@H](O)[C@@H]2OC)[C@@H](OC)[C@H]8O)[C@@H](OC)[C@H]7O)[C@@H](O)[C@H]6OC)[C@@H](OC)[C@H]5O)[C@@H](OC)[C@H]4O)[C@@H](OC)[C@H]3O (stereo partly drawn)	88.9	90.2	91.5	90.6
CC(=O)O[C@H]1C(=O)[C@@]2(C)[C@H]([C@H](OC(=O)c3ccccc3)[C@]3(O)C[C@H](OC(=O)[C@H](O)[C@@H](NC(=O)c4ccccc4)c4ccccc4)C(C)=C1C3(C)C)[C@]1(OC(C)=O)CO[C@@H]1C[C@@H]2O [PACLITAXEL]	11.6	43.3	46	12.1
COCC1O[C@H]2OC3C(COC)O[C@@H](OC4C(COC)O[C@@H](OC5C(COC)O[C@@H](OC6C(COC)O[C@@H](OC7C(COC)O[C@@H](OC8C(COC)O[C@@H](OC1[C@@H](OC)[C@@H]2OC)[C@@H](OC)[C@H]8OC)[C@@H](OC)[C@H]7OC)[C@@H](OC)[C@H]6OC)[C@@H](OC)[C@H]5OC)[C@@H](OC)[C@H]4OC)[C@@H](OC)[C@H]3OC (stereo partly drawn)	79.7	87	90.1	85.5
OC[C@H]1O[C@@H]2O[C@H]3[C@H](O)[C@@H](O)[C@@H](O[C@H]4[C@H](O)[C@@H](O)[C@@H](O[C@H]5[C@H](O)[C@@H](O)[C@@H](O[C@H]6[C@H](O)[C@@H](O)[C@@H](O[C@H]7[C@H](O)[C@@H](O)[C@@H](O[C@H]8[C@H](O)[C@@H](O)[C@@H](O[C@H]1[C@H](O)[C@H]2O)O[C@@H]8CO)O[C@@H]7CO)O[C@@H]6CO)O[C@@H]5CO)O[C@@H]4CO)O[C@@H]3CO [BETADEX]	96.4	96.4	96.8	96.6
